Data on 3 compounds can be found in US20240197755A1, “Pharmaceutical composition for use in the therapeutic treatment of cancer and complications of cancer” (priority 2016, published 2024).

Series [1] relates to MCF-7 (breast cancer). Briefly: Antiproliferative effect on MCF-7 cell line, 72 h exposure. It is filed as cell-based, human. Particulars: MCF-7, 72 hours of exposure. The source says: (§1) Different human Hep3B (hepatocellular carcinoma), MCF-7 (breast cancer), DU-145 (prostate cancer) cell lines were studied. They were selected on the basis of their ability to overexpress at least one protein from among reptin, pontin, and survivin. The stromal cells were also studied in order to determine the impact of the composition according to the invention in the tumor microenvironment. These cells were maintained in DMEM and supplemented with 10% fetal bovine serum (FBS) and 1% antibiotic-antimycotic solution (MSP) containing penicillin, streptomycin, and amphotericin B under standard growth conditions (5% CO2, 37° C., humidified atmosphere). The compositions above were dissolved and diluted in DMSO.
(§2) The cells above were treated with increasing solutions for 72 h in complete cell media. All treatment and control protocols were prepared as described previously.

Series [2] has as its system Hep3B (hepatocellular carcinoma). Briefly: Antiproliferative effect on Hep3B cell line, 72 h exposure. Particulars: 72 hours of exposure. It is filed as cell-based, human.
Source text: as §1, §2

Series [3] concerns DU-145 (prostate cancer). The series is described as follows: Antiproliferative effect on DU-145 cell line, 72 h exposure. It is filed as cell-based, human. Particulars: DU-145, 72 hours of exposure.
Source text: as §1, §2

The subject of series [4] is HCCLM3 cells. Particulars: cited from earlier work.
For series [5] the following is noted: rats, oral, 50 mg/kg, 18 consecutive days; cited from earlier work.
For series [6], the system named is U251/AMD cells. Particulars: cited from earlier work.

Structures are written as SMILES.

On to `O=CC=Cc1ccccc1O` [2-hydroxycinnamaldehyde], for which the antiproliferative effect result in series [1], in series [2] and in series [3] was “more pronounced antiproliferative effect” in each case.
Regarding `C=C(C)[C@@H]1CC[C@]2(C)CC[C@]3(C)[C@H](CC[C@@H]4[C@@]5(C)CC[C@H](O)C(C)(C)[C@@H]5CC[C@]43C)[C@@H]12` [lupeol], the antiproliferative effect entry in series [1], in series [2] and in series [3] was “more pronounced antiproliferative effect” throughout. Further, in series [4] (HCCLM3 cells), the “expression of the BDNF protein” value is recorded as “marked decrease”. The “cell proliferation of HCCLM3 cells” value in series [4] (as a function of concentration and time) was “inhibits cell proliferation”. Moreover, the “mortality and systemic toxicity” value in series [5] is “neither mortality nor systemic toxicity”.
In the case of `C=C[C@]1(C)CC[C@@H](C(=C)C)C[C@H]1C(=C)C` [Composition 13-elemene, beta-elemene], in series [6] (AMD, with beta-elemene), the “IC50 of U251/AMD cells” value was 0.051 µg/mL. Also, the “intracellular accumulation of AMD” value in series [6] (U251/AMD cells) is “increases the intracellular accumulation of AMD”.
